How the values were obtained:
Experiment in all cases: relative viability (nuclei count vs DMSO), 5 days (fraction); higher = more cells survive
XMD13-2 + Crizotinib = compound: C1CC1C(=O)NC2=NNC3=C2C=CC(=C3)C4=CC(=CC=C4)C(=O)NC5CC5 [XMD13-2] + C[C@@H](Oc1cc(-c2cnn(C3CCNCC3)c2)cnc1N)c1c(Cl)ccc(F)c1Cl [Crizotinib] (partner 1 µM)
Method in brief: (§1)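 Nuclei were stained with Hoechst during a one-step fixation (final 0.05% Triton X-100, 1% formaldehyde, 1 ug/ml Hoechst) carried out 5 days after dosing, then counted on 4× images. The cells, lung cancer lines in 1536-well plates, had been dosed by pin tool the day after seeding with one drug alone or a fixed anchor-drug dose plus five library-drug doses (not always all listed) in √10 steps. Relative viability is the nuclei count in treated wells divided by that in vehicle wells, and each value is the median of duplicate plates.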

Dasatinib + Palbociclib = compound: Cc1nc(Nc2ncc(C(=O)Nc3c(C)cccc3Cl)s2)cc(N2CCN(CCO)CC2)n1 [Dasatinib] + CC(=O)c1c(C)c2cnc(Nc3ccc(N4CCNCC4)cn3)nc2n(C2CCCC2)c1=O [Palbociclib] (partner 0.5 µM)
Method in brief: as §1

Dasatinib + Bortezomib = compound: Cc1nc(Nc2ncc(C(=O)Nc3c(C)cccc3Cl)s2)cc(N2CCN(CCO)CC2)n1 [Dasatinib] + CC(C)C[C@H](NC(=O)[C@H](Cc1ccccc1)NC(=O)c1cnccn1)B(O)O [Bortezomib] (partner 0.002 µM)
Method in brief: as §1

Dasatinib + Decitabine = compound: Cc1nc(Nc2ncc(C(=O)Nc3c(C)cccc3Cl)s2)cc(N2CCN(CCO)CC2)n1 [Dasatinib] + Nc1ncn([C@H]2C[C@H](O)[C@@H](CO)O2)c(=O)n1 [Decitabine] (partner 2 µM)
Method in brief: as §1

Cell Line	relative viability (XMD13-2 + Crizotinib; first compound 0.05 µM)	relative viability (XMD13-2 + Crizotinib; first compound 0.1581 µM)	relative viability (XMD13-2 + Crizotinib; first compound 0.5 µM)	relative viability (XMD13-2 + Crizotinib; first compound 1.581 µM)	relative viability (XMD13-2 + Crizotinib; first compound 5 µM)	relative viability (Dasatinib + Palbociclib; first compound 0.005 µM)	relative viability (Dasatinib + Palbociclib; first compound 0.01581 µM)	relative viability (Dasatinib + Palbociclib; first compound 0.05 µM)	relative viability (Dasatinib + Palbociclib; first compound 0.1581 µM)	relative viability (Dasatinib + Palbociclib; first compound 0.5 µM)	relative viability (Dasatinib + Bortezomib; first compound 0.005 µM)	relative viability (Dasatinib + Bortezomib; first compound 0.01581 µM)	relative viability (Dasatinib + Bortezomib; first compound 0.05 µM)	relative viability (Dasatinib + Bortezomib; first compound 0.1581 µM)	relative viability (Dasatinib + Bortezomib; first compound 0.5 µM)	relative viability (Dasatinib + Decitabine; first compound 0.005 µM)	relative viability (Dasatinib + Decitabine; first compound 0.01581 µM)	relative viability (Dasatinib + Decitabine; first compound 0.05 µM)	relative viability (Dasatinib + Decitabine; first compound 0.1581 µM)	relative viability (Dasatinib + Decitabine; first compound 0.5 µM)
NCI-H2023	0.738	0.592	0.62	0.556	0.809	0.319	0.304	0.303	0.326	0.204	0.788	0.818	0.791	0.705	0.669	0.262	0.226	0.216	0.214	0.209
HCC-366	0.616	0.527	0.688	0.529	0.65	0.412	0.185	0.173	0.114	0.0885	0.989	0.738	0.637	0.632	0.407	0.354	0.262	0.247	0.188	0.215
NCI-H1355	1.07	1.12	1.09	1.01	0.941	0.36	0.282	0.299	0.244	0.224	1.12	1.11	1.06	0.981	0.779	0.355	0.319	0.354	0.343	0.272
NCI-H1650	1.31	0.861	1.02	0.989	1.16	0.282	0.12	0.184	0.138	0.177	0.227	0.195	0.193	0.217	0.2	0.462	0.255	0.475	0.318	0.314
SW 1573	1.11	0.429	0.815	0.668	0.322	0.36	–	0.295	0.182	0.208	0.875	0.881	0.861	0.618	0.395	0.431	0.428	0.381	0.288	0.405
NCI-H661	0.985	1.02	0.864	0.887	0.875	0.429	0.412	0.386	0.345	0.282	0.62	0.415	0.557	0.319	0.24	0.566	0.528	0.518	0.394	0.404
LU99A	0.581	0.489	0.558	0.429	0.393	0.354	0.379	0.379	0.308	0.2	1.11	0.973	1.03	0.812	0.573	0.827	0.819	0.833	0.655	0.46
LCLC-97TM1	0.432	0.318	0.265	0.374	0.256	0.203	0.227	0.246	0.2	0.13	0.525	0.561	0.735	0.665	0.461	0.203	0.224	0.283	0.177	0.144
LC-2-ad	0.468	0.449	0.467	0.443	0.48	0.515	0.471	0.477	0.299	0.159	0.582	0.985	1.01	0.871	0.36	0.745	0.822	0.781	0.744	0.393
HOP-62	0.871	0.889	0.933	0.939	0.439	0.391	0.381	0.506	0.431	0.182	0.875	0.674	0.643	0.864	0.39	0.218	0.227	0.261	0.23	0.191
NCI-H2347	0.739	0.676	0.772	0.906	0.73	0.393	0.438	0.415	0.329	0.224	0.732	0.857	0.929	0.324	0.368	0.562	0.538	0.459	0.322	0.265
NCI-H2087	0.821	0.776	0.913	0.83	0.897	0.223	0.206	0.238	0.184	0.142	0.751	0.769	0.869	0.815	0.665	0.301	0.336	0.259	0.145	0.113
EPLC-272H	1.02	0.76	1.09	0.802	0.25	0.31	0.327	0.314	0.296	0.143	0.921	0.89	0.808	0.864	0.429	0.39	0.392	0.381	0.295	0.153
LXF-289	0.863	0.831	0.473	0.789	0.811	0.603	0.676	0.672	0.384	0.118	1.03	1.12	0.93	0.518	0.204	0.398	0.336	0.31	0.358	0.142
COR-L23	0.746	0.51	0.765	0.653	0.759	0.317	0.229	0.229	0.168	0.19	0.938	0.849	0.862	0.654	0.646	0.428	0.42	0.386	0.298	0.307
